Assay results: ChEMBL document CHEMBL1275270, “Antioxidant activity of unexplored indole derivatives: synthesis and screening” (Eur J Med Chem, 2010)
Activity calls are given as the source filed them. The rule behind the calls is not given here.

Experiments:
Format in all cases: functional
[1] = Antioxidant activity assessed as trolox equivalent of peroxyl radical scavenging activity by ORAC assay
[2] = Antioxidant activity assessed as inhibition of nitric oxide-induced oxidation of non-fluorescent DAF-2 by fluorescence assay
[3] = Antioxidant activity assessed as inhibition of HOCl-induced oxidation of DHR by rhodamine 123 staining
[4] = Antioxidant activity assessed as superoxide radical scavenging activity by NBT reduction assay
[5] = Antioxidant activity assessed as inhibition of singlet oxygen-induced oxidation of DHR by rhodamine 123 staining
[6] = Antioxidant activity assessed as inhibition of peroxynitrite anion-induced oxidation of non-fluorescent DHR by rhodamine 123 staining in presence of NaHCO3
[7] = Antioxidant activity assessed as inhibition of H2O2-induced oxidation of lucigenin
[8] = Antioxidant activity assessed as inhibition of peroxynitrite anion-induced oxidation of non-fluorescent DHR by rhodamine 123 staining in absence of NaHCO3

SMILES	fold change (FC) [1]	IC50 [2]	IC50 [3]	Activity [4]	IC50 ([5]; read-out: IC50)	IC50 [6]	inhibition [7]	IC50 ([8]; read-out: IC50)	IC50 ([2]; read-out: IC50)	IC50 [8]	IC50 [5]
COC(=O)[C@@H](N)Cc1c[nH]c2ccccc12 [TRYPTOPHAN METHYL ESTER]	2.6	Not Active	9.6 µM	inactive	1040 µM	13.1 µM	inactive	47.8 µM	–	–	–
CC(C)CCn1cc(CCN2C(=O)c3ccccc3C2=O)c2ccccc21	inactive	–	10.6 µM	inactive	1030 µM	237 µM	inactive	–	1530 µM	Not Active	–
COC(=O)[C@H](Cc1c[nH]c2ccccc12)NC(C)=O	1.21	Not Active	50 µM	inactive	1560 µM	22.9 µM	inactive	223 µM	–	–	–
NCCc1c[nH]c2ccccc12 [TRYPTAMINE]	1.86	–	6 µM	inactive	682 µM	10.4 µM	inactive	31.8 µM	672 µM	–	–
CC(C)=CCn1cc(CCN2C(=O)c3ccccc3C2=O)c2ccccc21	inactive	Not Active	6.34 µM	inactive	–	192 µM	inactive	–	–	Not Active	Not Active
COC(=O)[C@H](Cc1cn(CCC(C)C)c2ccccc12)NC(C)=O	0.28	Not Active	8.35 µM	inactive	718 µM	315 µM	inactive	548 µM	–	–	–
CC(C)=CCn1cc(CC(N)C(=O)O)c2ccccc21 (stereo not given)	1.05	–	4.13 µM	inactive	841 µM	42.4 µM	inactive	94.7 µM	208 µM	–	–
O=C1c2ccccc2C(=O)N1CCc1c[nH]c2ccccc12	1.46	Not Active	11.1 µM	inactive	–	40.9 µM	inactive	93 µM	–	–	Not Active
COC(=O)[C@H](Cc1cn(C/C=C/c2ccccc2)c2ccccc12)NC(C)=O	0.44	Not Active	67.7 µM	inactive	971 µM	36.3 µM	inactive	218 µM	–	–	–
COC(=O)[C@H](Cc1cn(CC=C(C)C)c2ccccc12)NC(C)=O	0.21	–	32.8 µM	inactive	777 µM	162 µM	inactive	545 µM	980 µM	–	–
COC(=O)[C@H](Cc1cn(CCCc2ccccc2)c2ccccc12)NC(C)=O	0.44	Not Active	14.2 µM	inactive	506 µM	142 µM	inactive	–	–	Not Active	–
COC(=O)C(Cc1cn(CC=C(C)C)c2ccccc12)N1C(=O)c2ccccc2C1=O (stereo not given)	0.36	Not Active	34.3 µM	inactive	2860 µM	241 µM	inactive	–	–	Not Active	–
COC(=O)C(Cc1c[nH]c2ccccc12)N1C(=O)c2ccccc2C1=O (stereo not given)	1.09	Not Active	27.3 µM	inactive	943 µM	29.5 µM	inactive	208 µM	–	–	–
CC(C)=CCn1cc(CCN)c2ccccc21	0.96	–	26.2 µM	inactive	618 µM	234 µM	inactive	905 µM	1430 µM	–	–
COC(=O)C(Cc1c(CCC(C)C)[nH]c2ccccc12)N1C(=O)c2ccccc2C1=O (stereo not given)	0.97	Not Active	3.75 µM	inactive	750 µM	14 µM	inactive	–	–	Not Active	–
CC(C)=CCc1[nH]c2ccccc2c1CC(N)C(=O)O (stereo not given)	0.48	–	4.56 µM	inactive	–	–	inactive	–	–	–	–
N[C@@H](Cc1c[nH]c2ccccc12)C(=O)O [TRYPTOPHAN]	2.74	–	3.5 µM	inactive	992 µM	19.2 µM	inactive	31.9 µM	1150 µM	–	–
COC(=O)C(Cc1c(CC=C(C)C)[nH]c2ccccc12)N1C(=O)c2ccccc2C1=O (stereo not given)	0.45	–	7.18 µM	inactive	2310 µM	28.2 µM	inactive	–	239 µM	Not Active	–
